Results published in the supplement of paper PMC10307832.

Key:
Assay in all cases: relative viability (nuclei count vs DMSO), 5 days (fraction); higher = more cells survive
[1] = compound: CC1=CSC(=NC2CCCCC2)N1/N=C/C3=C(C(=C(C=C3)O)O)O [MIM1]
Outline: (§1)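 Acceptance criteria were a control CV below 25% and at least one doubling per plate. Lung cancer cell lines in 1536-well plates got five library-drug doses (not always all listed) √10 apart by pinning and were left 5 days with no medium change. Viability divides treated-well nuclei by vehicle-well nuclei and is the median across plates. Nuclei were counted by MetaXpress from 4× Hoechst images.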

[2] = compound: CCNC(=O)c1noc(-c2cc(C(C)C)c(O)cc2O)c1-c1ccc(CN2CCOCC2)cc1 [Luminespib]
Outline: as §1

[3] = compound: CN1CCN(CCOc2cc(OC3CCOCC3)c3c(Nc4c(Cl)ccc5c4OCO5)ncnc3c2)CC1 [Saracatinib]
Outline: as §1

[4] = compound: Cc1cn(-c2cc(NC(=O)c3ccc(C)c(Nc4nccc(-c5cccnc5)n4)c3)cc(C(F)(F)F)c2)cn1 [Nilotinib]
Outline: as §1

[5] = compound: Nc1cccc2c1CN(C1CCC(=O)NC1=O)C2=O [Lenalidomide]
Outline: as §1

Cell Line	relative viability ([1]; 0.2 µM)	relative viability ([1]; 0.6325 µM)	relative viability ([1]; 2 µM)	relative viability ([1]; 6.325 µM)	relative viability ([1]; 20 µM)	relative viability ([2]; 0.002 µM)	relative viability ([2]; 0.006325 µM)	relative viability ([2]; 0.01 µM, anchor plate)	relative viability ([2]; 0.02 µM)	relative viability ([2]; 0.06325 µM)	relative viability ([2]; 0.2 µM)	relative viability ([3]; 0.02 µM)	relative viability ([3]; 0.2 µM)	relative viability ([3]; 0.6325 µM)	relative viability ([3]; 2 µM)	relative viability ([4]; 0.001 µM)	relative viability ([4]; 0.003162 µM)	relative viability ([4]; 0.01 µM)	relative viability ([4]; 0.03162 µM)	relative viability ([4]; 0.1 µM)	relative viability ([5]; 0.253 µM)	relative viability ([5]; 0.8 µM)	relative viability ([5]; 2.53 µM)	relative viability ([5]; 8 µM)
LC-2-ad	0.991	0.699	0.944	0.428	0.231	0.95	0.936	1.03	0.915	0.561	0.207	1.05	0.978	1.15	0.944	0.95	1.15	1.15	0.912	0.479	1.04	0.862	1.08	1.02
LCLC-97TM1	1.02	0.767	0.703	0.456	0.144	0.878	0.814	0.77	0.466	0.528	0.0858	0.986	0.712	1.19	0.974	–	0.984	1.06	0.834	0.368	0.943	0.932	1.05	0.616
LCLC-103H	1.02	0.976	0.973	0.742	0.53	0.982	1.01	0.954	0.941	1.02	0.83	0.944	0.884	1.02	0.963	1.01	1.08	1.12	0.975	0.804	0.97	1	0.988	0.783
LK-2	1.01	1.04	0.858	0.957	0.262	1.03	1.02	0.204	0.556	0.258	0.154	0.925	0.823	0.788	0.484	0.89	0.903	1.08	0.729	0.875	0.985	0.956	1.14	0.906
LOU-NH91	0.863	0.903	0.809	0.758	0.394	0.995	0.922	0.364	0.717	0.334	0.376	0.945	0.741	0.834	0.66	0.961	0.944	0.973	0.981	0.967	1	0.873	0.95	0.905
LU99A	0.995	0.909	0.949	0.802	0.323	1.05	0.94	0.247	0.508	0.241	0.124	0.983	0.86	0.853	0.757	0.892	1.02	0.919	0.831	0.558	0.919	0.902	1.05	0.601
LXF-289	1.04	0.741	1.04	0.737	0.503	0.974	0.979	0.681	1.09	0.85	0.195	0.997	0.944	1.02	1.01	0.937	1.19	1.15	0.96	0.576	0.981	1.03	1.11	1.07
NCI-H23	0.99	0.52	0.798	0.523	0.209	0.953	0.932	0.22	0.663	0.13	0.141	1.12	0.794	0.988	0.739	0.963	0.899	1.15	0.668	0.74	0.922	0.91	1.18	0.764
NCI-H322M	0.964	0.895	0.906	0.826	0.522	0.921	0.883	0.918	0.764	0.426	0.318	0.969	0.886	0.696	0.365	1.03	0.962	–	1.06	1.05	0.97	0.953	1.02	0.918
NCI-H358	1.01	0.953	0.86	0.429	0.237	0.966	0.887	0.352	0.512	0.115	0.111	0.938	0.822	0.568	0.409	0.831	1.18	1.12	0.836	0.776	0.908	1.01	0.893	1.08
NCI-H441	1.04	0.754	0.994	0.492	0.207	0.93	1.01	0.345	0.926	0.133	0.129	0.99	0.896	1.23	0.884	0.927	1.4	1.21	0.724	0.938	0.967	0.869	1.21	0.808
NCI-H460	0.988	0.994	0.827	0.45	0.124	1.02	0.952	0.0332	0.806	0.0356	0.0297	0.998	0.82	0.976	0.877	0.924	1.21	1.12	0.78	0.857	0.984	0.956	1.04	1
NCI-H520	1.02	1.01	1.01	0.859	0.383	1.05	1.02	0.235	0.547	0.163	0.157	1.01	–	0.897	0.494	0.86	–	1.21	0.896	0.949	0.918	0.917	1.14	0.784
NCI-H522	1.13	0.893	0.865	0.859	0.607	0.945	0.935	1.16	0.73	0.617	0.391	0.917	0.705	0.907	0.732	–	0.974	0.996	0.89	0.722	0.896	0.816	1.07	0.886
NCI-H596	1.11	1.19	0.88	0.939	0.685	1.06	0.901	1.09	0.684	0.919	0.921	1.12	0.817	0.906	0.815	0.939	0.982	1.05	0.771	0.848	0.906	0.704	1.09	0.723
NCI-H647	0.933	0.951	0.51	0.821	0.3	0.953	0.935	0.174	0.674	0.0941	0.092	0.967	0.868	0.858	0.572	0.889	1.17	1.35	0.729	0.878	0.993	0.753	1.16	0.904
NCI-H650	1.05	0.756	0.917	0.856	0.382	0.95	0.843	0.812	0.692	0.538	0.124	1.12	0.863	0.965	0.926	0.908	0.811	0.805	0.658	0.654	1.03	–	1.21	0.845
NCI-H661	0.991	1.01	0.941	0.746	0.406	1.01	0.969	0.916	0.778	0.754	0.325	1.02	0.977	0.926	0.669	0.951	1.06	1.09	0.949	0.948	0.917	0.934	1.03	0.958
NCI-H727	0.833	0.823	0.878	0.723	0.452	0.95	0.738	0.369	0.64	0.308	0.287	0.874	0.765	0.863	0.612	0.787	–	0.938	0.694	0.614	0.868	0.927	0.908	0.857
NCI-H838	0.967	0.959	0.786	0.78	0.372	0.983	0.92	0.298	0.554	0.177	0.186	0.96	0.897	0.898	0.772	0.924	1.02	1.06	0.863	0.992	0.969	0.879	1.07	0.823
NCI-H1299	0.983	0.992	0.994	1.01	0.776	1.03	0.95	–	1.04	0.942	0.217	1.02	0.948	1.05	1	0.939	1.08	1.15	1.02	0.966	1.02	0.97	1.03	1.05
NCI-H1355	1	0.824	1.07	0.816	0.595	0.953	0.956	0.746	0.52	0.67	0.166	1.02	0.972	1.03	0.975	0.96	1.21	1.13	1.01	0.428	1	0.746	1.02	0.721
NCI-H1395	0.961	0.791	0.873	0.675	0.345	1.07	0.861	0.764	0.622	0.362	0.323	0.994	0.828	0.91	0.799	0.957	0.7	0.874	0.803	0.542	0.997	–	1.02	0.846
NCI-H1437	0.956	0.927	1	0.714	0.273	0.977	0.943	1.12	1.02	0.743	0.26	1.02	1.02	1.04	0.971	0.955	0.988	1.12	0.868	0.958	1.02	0.939	1.05	1.01
NCI-H1563	1.09	1.02	0.993	0.903	0.542	0.984	0.985	0.508	0.794	0.503	0.49	1.04	0.894	0.804	0.728	0.956	1.03	0.971	0.869	1.02	0.932	1.01	1.11	0.846
NCI-H1623	0.922	0.965	1.03	0.945	0.46	1.02	0.959	0.529	0.712	0.716	0.302	0.993	0.852	1.11	0.67	1.1	0.885	1.08	0.889	0.927	1.08	0.932	1.05	0.869
NCI-H1648	1.01	0.929	0.989	0.635	0.283	0.671	0.811	–	0.837	0.742	0.413	0.895	0.553	1.52	0.727	0.79	0.738	0.829	0.605	0.757	0.93	0.732	1.29	0.705
NCI-H1650	0.908	0.949	0.654	0.189	0.148	1.02	0.823	0.199	0.228	0.122	0.138	0.814	0.689	0.737	0.581	0.912	1.22	1.12	0.931	0.598	0.828	0.857	1.23	1.12
